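In this assay, cells in 96-well plates receive the compound at five concentrations for 48 hours. Endpoints are linearly interpolated between the surrounding concentrations. The concentration for full growth arrest is given as TGI.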
Columns and labels:
Assay in all cases: DTP human tumour cell line panel, 48 h
[1] = system: SW-620 colon
[2] = system: MALME-3M melanoma
[3] = system: CAKI-1 renal
[4] = system: SN12C renal
[5] = system: U251 CNS
[6] = system: SK-MEL-2 melanoma
[7] = system: OVCAR-5 ovarian
[8] = system: KM12 colon
[9] = system: T-47D breast
[10] = system: MDA-N
[11] = system: RXF 393 renal
[12] = system: M14 melanoma
[13] = system: CCRF-CEM leukemia
[14] = system: MCF7 breast
[15] = system: NCI/ADR-RES ovarian
[16] = system: MDA-MB-435
[17] = system: SNB-75 CNS
[18] = system: A549 NSCLC
[19] = system: TK-10 renal
[20] = system: HCT-15 colon
[21] = system: SK-OV-3 ovarian
[22] = system: HOP-62 NSCLC
[23] = system: SF-295 CNS
[24] = system: OVCAR-8 ovarian
[25] = system: SK-MEL-5 melanoma
[26] = system: RPMI-8226 leukemia
[27] = system: MOLT-4 leukemia
[28] = system: PC-3 prostate
[29] = system: IGROV1 ovarian
[30] = system: HT29 colon
[31] = system: HCC-2998 colon
[32] = system: SK-MEL-28 melanoma
[33] = system: LOX IMVI melanoma
[34] = system: HS 578T breast
[35] = system: MDA-MB-231 breast
[36] = system: HOP-92 NSCLC
[37] = system: COLO 205 colon
[38] = system: A498 renal
[39] = system: NCI-H460 lung
[40] = system: HL-60(TB) leukemia
[41] = system: UO-31 renal
[42] = system: K-562 leukemia
[43] = system: NCI-H226 lung
[44] = system: DU-145 prostate
[45] = system: 786-0 renal
[46] = system: SNB-19 CNS
[47] = system: HCT-116 colon
[48] = system: OVCAR-3 ovarian
[49] = system: NCI-H522 lung
[50] = system: UACC-257 melanoma
[51] = system: SF-268 CNS
[52] = system: OVCAR-4 ovarian
[53] = system: SR leukemia
[54] = system: UACC-62 melanoma
[55] = system: BT-549 breast
[56] = system: NCI-H23 lung
[57] = system: EKVX NSCLC
[58] = system: ACHN renal
[59] = system: SF-539 CNS
[60] = system: KM20L2 colon
[61] = system: LXFL 529 NSCLC
[62] = system: HOP-18 NSCLC
[63] = system: DLD-1 colon
[64] = system: DMS 273 small cell lung
[65] = system: DMS 114 small cell lung
[66] = system: M19-MEL melanoma
[67] = system: XF 498 CNS

COc1ccc(C2c3cc4c(cc3OC(N3CCOCC3)C2C)OCO4)cc1OC (configuration not stated)
TGI [1]: > 100 µM | TGI [2]: > 100 µM | TGI [3]: 26.4 µM | TGI [4]: > 100 µM | TGI [5]: 29.5 µM | TGI [6]: 61.8 µM | TGI [7]: > 100 µM | TGI [8]: > 100 µM | TGI [9]: > 100 µM | TGI [10]: 4.65 µM | TGI [11]: 25.4 µM | TGI [12]: 52.3 µM | TGI [13]: 62.5 µM | TGI [14]: > 96 µM | TGI [15]: 25.7 µM | TGI [16]: 6.25 µM | TGI [17]: 21.4 µM | TGI [18]: > 85 µM | TGI [19]: > 88.8 µM | TGI [20]: > 100 µM | TGI [21]: 87.7 µM | TGI [22]: 72.6 µM | TGI [23]: 32.8 µM | TGI [24]: > 100 µM | TGI [25]: > 100 µM | TGI [26]: > 100 µM | TGI [27]: 77.9 µM | TGI [28]: > 100 µM | TGI [29]: > 100 µM | TGI [30]: 46.8 µM | TGI [31]: > 44.8 µM | TGI [32]: > 100 µM | TGI [33]: > 93.7 µM | TGI [34]: 22.1 µM | TGI [35]: > 100 µM | TGI [36]: > 92.3 µM | TGI [37]: > 44.2 µM | TGI [38]: 43 µM | TGI [39]: > 63.8 µM | TGI [40]: > 29.1 µM | TGI [41]: > 100 µM | TGI [42]: > 56.5 µM | TGI [43]: 31.7 µM | TGI [44]: > 79.7 µM | TGI [45]: 53.8 µM | TGI [46]: 77.6 µM | TGI [47]: 50.8 µM | TGI [48]: 13.2 µM | TGI [49]: 22.8 µM | TGI [50]: > 100 µM | TGI [51]: > 100 µM | TGI [52]: > 100 µM | TGI [53]: > 100 µM | TGI [54]: > 82.9 µM | TGI [55]: > 100 µM | TGI [56]: > 89.6 µM | TGI [57]: > 100 µM | TGI [58]: > 100 µM | TGI [59]: 22.1 µM

CCOc1ccc2c(c1)[n+]([O-])c(-c1ccccc1)c(N)[n+]2[O-]
TGI [1]: > 100 µM | TGI [2]: > 100 µM | TGI [3]: 89.4 µM | TGI [4]: > 100 µM | TGI [5]: > 100 µM | TGI [60]: > 100 µM | TGI [6]: > 100 µM | TGI [7]: > 100 µM | TGI [8]: > 100 µM | TGI [61]: > 100 µM | TGI [12]: > 100 µM | TGI [13]: > 100 µM | TGI [62]: > 100 µM | TGI [17]: > 100 µM | TGI [63]: > 100 µM | TGI [64]: > 100 µM | TGI [18]: > 100 µM | TGI [19]: > 100 µM | TGI [20]: > 100 µM | TGI [21]: > 100 µM | TGI [22]: > 100 µM | TGI [23]: > 100 µM | TGI [65]: > 100 µM | TGI [24]: > 100 µM | TGI [25]: 51.5 µM | TGI [26]: > 100 µM | TGI [27]: > 100 µM | TGI [29]: > 100 µM | TGI [30]: > 100 µM | TGI [31]: > 100 µM | TGI [32]: > 100 µM | TGI [33]: > 100 µM | TGI [66]: > 100 µM | TGI [37]: 81.8 µM | TGI [38]: > 100 µM | TGI [39]: > 100 µM | TGI [40]: > 100 µM | TGI [41]: > 100 µM | TGI [67]: > 100 µM | TGI [42]: > 100 µM | TGI [43]: > 100 µM | TGI [45]: > 100 µM | TGI [46]: > 100 µM | TGI [48]: > 100 µM | TGI [49]: 32.2 µM | TGI [50]: > 100 µM | TGI [51]: > 100 µM | TGI [52]: > 100 µM | TGI [54]: > 100 µM | TGI [56]: 91.3 µM | TGI [57]: > 100 µM | TGI [58]: > 100 µM | TGI [59]: > 100 µM
